Reference: ChEMBL document CHEMBL1201862, “PubChem BioAssay data set” (2004)
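Briefly, cells in 96-well plates were exposed to five compound concentrations for 48 h, and endpoints were estimated by linear interpolation. GI50 marks 50% less growth.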 Calls of active or inactive are those of the source. No stated cut-off is given here; in the data, active = GI50 up to about 1.1 µM and inactive = higher.

Assays:
Experiment in all cases: NCI tumour cell line growth inhibition, 48 h
786-0 = test system: 786-0
A498 = test system: A498
A549 = test system: A549
ACHN = test system: ACHN
BT-549 = test system: BT-549
CAKI-1 = test system: CAKI-1
CCRF-CEM = test system: CCRF-CEM
COLO 205 = test system: COLO 205
DU-145 = test system: DU-145
EKVX = test system: EKVX
HCC 2998 = test system: HCC 2998
HCT-116 = test system: HCT-116
HCT-15 = test system: HCT-15
HL-60 = test system: HL-60
HOP-62 = test system: HOP-62
HOP-92 = test system: HOP-92
HT-29 = test system: HT-29
Hs-578T = test system: Hs-578T
IGROV-1 = test system: IGROV-1
K562 = test system: K562
KM12 = test system: KM12
LOX IMVI = test system: LOX IMVI
M14 = test system: M14
MCF7 = test system: MCF7
MDA-MB-231 = test system: MDA-MB-231
MDA-MB-435 = test system: MDA-MB-435
MDA-N = test system: MDA-N
MOLT-4 = test system: MOLT-4
Malme-3M = test system: Malme-3M
NCI-H226 = test system: NCI-H226
NCI-H23 = test system: NCI-H23
NCI-H460 = test system: NCI-H460
NCI-H522 = test system: NCI-H522
NCI/ADR-RES = test system: NCI/ADR-RES
OVCAR-3 = test system: OVCAR-3
OVCAR-4 = test system: OVCAR-4
OVCAR-5 = test system: OVCAR-5
OVCAR-8 = test system: OVCAR-8
PC-3 = test system: PC-3
RPMI-8226 = test system: RPMI-8226
RXF 393 = test system: RXF 393
SF-268 = test system: SF-268
SF-295 = test system: SF-295
SF-539 = test system: SF-539
SK-MEL-28 = test system: SK-MEL-28
SK-MEL-2 = test system: SK-MEL-2
SK-MEL-5 = test system: SK-MEL-5
SK-OV-3 = test system: SK-OV-3
SN12C = test system: SN12C
SNB-19 = test system: SNB-19
SNB-75 = test system: SNB-75
SR = test system: SR
SW-620 = test system: SW-620
T47D = test system: T47D
TK-10 = test system: TK-10
U-251 = test system: U-251
UACC-257 = test system: UACC-257
UACC-62 = test system: UACC-62
UO-31 = test system: UO-31

Structure (SMILES): COC(=O)/C=C1\C(=O)N(C(C)=O)c2ccccc21
- GI50 (786-0): 4.9 µM (inactive)
- GI50 (A498): 0.0371 µM (active)
- GI50 (A549): 7.18 µM (inactive)
- GI50 (ACHN): 6.82 µM (inactive)
- GI50 (BT-549): 3.47 µM (inactive)
- GI50 (CAKI-1): 0.0671 µM (active)
- GI50 (CCRF-CEM): 2.97 µM (inactive)
- GI50 (COLO 205): 12.2 µM (inactive)
- GI50 (DU-145): 9.86 µM (inactive)
- GI50 (EKVX): 12.3 µM (inactive)
- GI50 (HCC 2998): 15.4 µM (inactive)
- GI50 (HCT-116): 8.28 µM (inactive)
- GI50 (HCT-15): 6.19 µM
- GI50 (HL-60): 2.03 µM (inactive)
- GI50 (HOP-62): 12.9 µM (inactive)
- GI50 (HOP-92): 2.04 µM (inactive)
- GI50 (HT-29): 5.28 µM (inactive)
- GI50 (Hs-578T): 4.17 µM (inactive)
- GI50 (IGROV-1): 7.87 µM (inactive)
- GI50 (K562): 5.61 µM (inactive)
- GI50 (KM12): 12.7 µM (inactive)
- GI50 (LOX IMVI): 3.91 µM (inactive)
- GI50 (M14): 13.2 µM (inactive)
- GI50 (MCF7): 3.64 µM (inactive)
- GI50 (MDA-MB-231): 7.6 µM (inactive)
- GI50 (MDA-MB-435): 11.3 µM (inactive)
- GI50 (MDA-N): 7.85 µM (inactive)
- GI50 (MOLT-4): 5.78 µM (inactive)
- GI50 (Malme-3M): 13.5 µM (inactive)
- GI50 (NCI-H226): 12.4 µM (inactive)
- GI50 (NCI-H23): 14.6 µM (inactive)
- GI50 (NCI-H460): 10.5 µM (inactive)
- GI50 (NCI-H522): 3.35 µM (inactive)
- GI50 (NCI/ADR-RES): 13.9 µM (inactive)
- GI50 (OVCAR-3): 7.67 µM (inactive)
- GI50 (OVCAR-4): 5.25 µM (inactive)
- GI50 (OVCAR-5): 22.1 µM (inactive)
- GI50 (OVCAR-8): 17.4 µM (inactive)
- GI50 (PC-3): 13.8 µM (inactive)
- GI50 (RPMI-8226): 11.9 µM (inactive)
- GI50 (RXF 393): 6.04 µM (inactive)
- GI50 (SF-268): 16.5 µM (inactive)
- GI50 (SF-295): 17 µM (inactive)
- GI50 (SF-539): 4.79 µM (inactive)
- GI50 (SK-MEL-28): 12.3 µM (inactive)
- GI50 (SK-MEL-2): 16.9 µM (inactive)
- GI50 (SK-MEL-5): 8.73 µM (inactive)
- GI50 (SK-OV-3): 14.8 µM (inactive)
- GI50 (SN12C): 6.22 µM (inactive)
- GI50 (SNB-19): 18 µM (inactive)
- GI50 (SNB-75): 12.5 µM (inactive)
- GI50 (SR): 2.52 µM (inactive)
- GI50 (SW-620): 13.7 µM (inactive)
- GI50 (T47D): 8.39 µM (inactive)
- GI50 (TK-10): 7.14 µM (inactive)
- GI50 (U-251): 12.8 µM (inactive)
- GI50 (UACC-257): 7.38 µM (inactive)
- GI50 (UACC-62): 4.27 µM (inactive)
- GI50 (UO-31): 12.9 µM (inactive)

Structure (SMILES): CN1CCOC1(C)c1ccccc1 (configuration not stated)
- GI50 (786-0): > 100 µM (inactive)
- GI50 (A498): > 100 µM (inactive)
- GI50 (A549): > 100 µM (inactive)
- GI50 (ACHN): > 100 µM (inactive)
- GI50 (BT-549): > 100 µM (inactive)
- GI50 (CAKI-1): > 100 µM (inactive)
- GI50 (CCRF-CEM): > 100 µM (inactive)
- GI50 (COLO 205): > 100 µM (inactive)
- GI50 (DU-145): > 100 µM (inactive)
- GI50 (EKVX): > 100 µM (inactive)
- GI50 (HCC 2998): > 100 µM (inactive)
- GI50 (HCT-116): > 100 µM (inactive)
- GI50 (HCT-15): > 100 µM
- GI50 (HL-60): > 100 µM (inactive)
- GI50 (HOP-62): > 100 µM (inactive)
- GI50 (HOP-92): > 100 µM (inactive)
- GI50 (HT-29): > 100 µM (inactive)
- GI50 (Hs-578T): > 100 µM (inactive)
- GI50 (IGROV-1): > 100 µM (inactive)
- GI50 (K562): > 100 µM (inactive)
- GI50 (KM12): > 100 µM (inactive)
- GI50 (LOX IMVI): > 100 µM (inactive)
- GI50 (M14): > 100 µM (inactive)
- GI50 (MCF7): > 100 µM (inactive)
- GI50 (MDA-MB-231): > 100 µM (inactive)
- GI50 (MDA-MB-435): > 100 µM (inactive)
- GI50 (MDA-N): > 100 µM (inactive)
- GI50 (MOLT-4): > 100 µM (inactive)
- GI50 (Malme-3M): > 100 µM (inactive)
- GI50 (NCI-H226): > 100 µM (inactive)
- GI50 (NCI-H23): > 100 µM (inactive)
- GI50 (NCI-H460): > 100 µM (inactive)
- GI50 (NCI-H522): > 100 µM (inactive)
- GI50 (NCI/ADR-RES): > 100 µM (inactive)
- GI50 (OVCAR-3): > 100 µM (inactive)
- GI50 (OVCAR-4): > 100 µM (inactive)
- GI50 (OVCAR-5): > 100 µM (inactive)
- GI50 (OVCAR-8): > 100 µM (inactive)
- GI50 (PC-3): > 100 µM (inactive)
- GI50 (RPMI-8226): > 100 µM (inactive)
- GI50 (RXF 393): > 100 µM (inactive)
- GI50 (SF-268): > 100 µM (inactive)
- GI50 (SF-295): > 100 µM (inactive)
- GI50 (SF-539): > 100 µM (inactive)
- GI50 (SK-MEL-28): > 100 µM (inactive)
- GI50 (SK-MEL-2): > 100 µM (inactive)
- GI50 (SK-MEL-5): > 26.1 µM (inactive)
- GI50 (SK-OV-3): > 100 µM (inactive)
- GI50 (SN12C): > 100 µM (inactive)
- GI50 (SNB-19): > 100 µM (inactive)
- GI50 (SNB-75): > 100 µM (inactive)
- GI50 (SR): > 100 µM (inactive)
- GI50 (SW-620): > 100 µM (inactive)
- GI50 (T47D): > 100 µM (inactive)
- GI50 (TK-10): > 100 µM (inactive)
- GI50 (U-251): > 100 µM (inactive)
- GI50 (UACC-257): > 100 µM (inactive)
- GI50 (UACC-62): > 100 µM (inactive)
- GI50 (UO-31): > 100 µM (inactive)

Structure (SMILES): O=C(/C=C(O)/C(=C/C(=O)c1ccccc1)NN=C(c1ccccc1)c1ccccc1)c1ccccc1
- GI50 (786-0): 31.1 µM (inactive)
- GI50 (A498): 32.4 µM (inactive)
- GI50 (A549): 36.1 µM (inactive)
- GI50 (ACHN): 38.3 µM (inactive)
- GI50 (BT-549): 31.2 µM (inactive)
- GI50 (CAKI-1): 39.7 µM (inactive)
- GI50 (CCRF-CEM): 3.3 µM (inactive)
- GI50 (COLO 205): 40.6 µM (inactive)
- GI50 (DU-145): 45.2 µM (inactive)
- GI50 (EKVX): > 100 µM (inactive)
- GI50 (HCC 2998): 20.6 µM (inactive)
- GI50 (HCT-116): 28.1 µM (inactive)
- GI50 (HCT-15): 23.5 µM
- GI50 (HL-60): 1.57 µM (inactive)
- GI50 (HOP-62): 21 µM (inactive)
- GI50 (HOP-92): 60.4 µM (inactive)
- GI50 (HT-29): 85.7 µM (inactive)
- GI50 (Hs-578T): 29.2 µM (inactive)
- GI50 (IGROV-1): 36.9 µM (inactive)
- GI50 (K562): 15.2 µM (inactive)
- GI50 (KM12): 42.3 µM (inactive)
- GI50 (LOX IMVI): 38.3 µM (inactive)
- GI50 (M14): 24.9 µM (inactive)
- GI50 (MCF7): 34.4 µM (inactive)
- GI50 (MDA-MB-231): 49.7 µM (inactive)
- GI50 (MDA-MB-435): 31 µM (inactive)
- GI50 (MDA-N): 31.8 µM (inactive)
- GI50 (MOLT-4): 14.1 µM (inactive)
- GI50 (Malme-3M): 25.2 µM (inactive)
- GI50 (NCI-H226): 24.9 µM (inactive)
- GI50 (NCI-H23): 24 µM (inactive)
- GI50 (NCI-H460): 24 µM (inactive)
- GI50 (NCI-H522): 15.7 µM (inactive)
- GI50 (NCI/ADR-RES): 18.9 µM (inactive)
- GI50 (OVCAR-3): 18.3 µM (inactive)
- GI50 (OVCAR-4): 38.4 µM (inactive)
- GI50 (OVCAR-5): > 100 µM (inactive)
- GI50 (OVCAR-8): 44.7 µM (inactive)
- GI50 (PC-3): 35.9 µM (inactive)
- GI50 (RPMI-8226): 24.4 µM (inactive)
- GI50 (RXF 393): 41 µM (inactive)
- GI50 (SF-268): 30.3 µM (inactive)
- GI50 (SF-295): 23.5 µM (inactive)
- GI50 (SF-539): 37.5 µM (inactive)
- GI50 (SK-MEL-28): 51.6 µM (inactive)
- GI50 (SK-MEL-2): 25.8 µM (inactive)
- GI50 (SK-MEL-5): 18.7 µM (inactive)
- GI50 (SK-OV-3): 25.8 µM (inactive)
- GI50 (SN12C): 30.2 µM (inactive)
- GI50 (SNB-19): 41.3 µM (inactive)
- GI50 (SNB-75): 49.7 µM (inactive)
- GI50 (SR): 9.08 µM (inactive)
- GI50 (SW-620): 33.2 µM (inactive)
- GI50 (T47D): 32.4 µM (inactive)
- GI50 (TK-10): 28.4 µM (inactive)
- GI50 (U-251): 26.7 µM (inactive)
- GI50 (UACC-257): 26.9 µM (inactive)
- GI50 (UACC-62): 17.1 µM (inactive)
- GI50 (UO-31): 47.6 µM (inactive)
